ChEMBL document CHEMBL4376820, “Homodimeric Tobramycin Adjuvant Repurposes Novobiocin as an Effective Antibacterial Agent against Gram-Negative Bacteria” (J Med Chem, 2019)

What was measured:
[1] = tested on: Klebsiella pneumoniae; assay: Potentiation of novobiocin-induced antibacterial activity against colistin-resistant Klebsiella pneumoniae 113250 clinical isolate assessed as fold reduction in novobiocin MIC incubated for 18 hrs by CLSI protocol based assay relative to novobiocin MIC; assay type: functional
[2] = tested on: Pseudomonas aeruginosa; assay: Induction of outer membrane permeabilization in Pseudomonas aeruginosa PAO1 assessed as increase in accumulation of NPN by measuring fluorescence intensity measured immediately by NPN dye uptake assay; assay type: organism-based
[3] = tested on: Klebsiella pneumoniae; assay: Potentiation of novobiocin-induced antibacterial activity against colistin-resistant Klebsiella pneumoniae 113254 clinical isolate assessed as fold reduction in novobiocin MIC incubated for 18 hrs by CLSI protocol based assay relative to novobiocin MIC; assay type: functional
[4] = tested on: Acinetobacter baumannii; assay: Potentiation of novobiocin-induced antibacterial activity against colistin-resistant Acinetobacter baumannii 92247 clinical isolate assessed as novobiocin MIC at <= 7.1 uM incubated for 18 hrs by CLSI protocol based assay (reference value: 4 ug/ml); assay type: functional; conditions: Acinetobacter baumannii, 92247, 18 h
[5] = tested on: Escherichia coli; assay: Bactericidal activity against Escherichia coli ATCC […] assessed as log reduction in colony forming units per ml at 7.1 uM in LB media after 9 hrs by time-kill assay; assay type: functional
[6] = tested on: Acinetobacter baumannii; assay: Potentiation of novobiocin-induced antibacterial activity against Acinetobacter baumannii 110193 clinical isolate assessed as novobiocin MIC at <= 7.1 uM incubated for 18 hrs by CLSI protocol based assay (reference value: 256 ug/ml); assay type: functional; conditions: Acinetobacter baumannii, 110193, 18 h
[7] = tested on: Pseudomonas aeruginosa; assay: Synergistic antibacterial activity against wild type Pseudomonas aeruginosa PAO1 assessed as potentiation of rifampicin-induced antibacterial effect incubated for 18 hrs by checkerboard assay; assay type: functional, organism-based
[8] = tested on: Pseudomonas aeruginosa; assay: Synergistic antibacterial activity against wild type Pseudomonas aeruginosa PAO1 assessed as potentiation of cefotaxime-induced antibacterial effect incubated for 18 hrs by checkerboard assay; assay type: functional, organism-based
[9] = tested on: Acinetobacter baumannii; assay: Antibacterial activity against Acinetobacter baumannii 031 clinical incubated for 18 hrs by CLSI protocol based assay; assay type: functional; conditions: Acinetobacter baumannii, 031, 18 h
[10] = tested on: Pseudomonas aeruginosa; assay: Synergistic antibacterial activity against wild type Pseudomonas aeruginosa PAO1 assessed as potentiation of novobiocin-induced antibacterial effect incubated for 18 hrs by checkerboard assay; assay type: functional, organism-based
[11] = tested on: Pseudomonas aeruginosa; assay: Synergistic antibacterial activity against wild type Pseudomonas aeruginosa PAO1 assessed as potentiation of linezolid-induced antibacterial effect incubated for 18 hrs by checkerboard assay; assay type: functional, organism-based
[12] = tested on: Pseudomonas aeruginosa; assay: Synergistic antibacterial activity against wild type Pseudomonas aeruginosa PAO1 assessed as potentiation of clindamycin-induced antibacterial effect incubated for 18 hrs by checkerboard assay; assay type: functional, organism-based
[13] = tested on: Pseudomonas aeruginosa; assay: Synergistic antibacterial activity against wild type Pseudomonas aeruginosa PAO1 assessed as potentiation of doxycycline-induced antibacterial effect incubated for 18 hrs by checkerboard assay; assay type: functional, organism-based
[14] = tested on: Pseudomonas aeruginosa; assay: Potentiation of novobiocin-induced antibacterial activity against carbapenem and colistin-resistant Pseudomonas aeruginosa 114228 clinical isolate assessed as novobiocin MIC at <= 7.1 uM incubated for 18 hrs by CLSI protocol based assay (reference value: 512 ug/ml); assay type: functional; conditions: Pseudomonas aeruginosa, 114228, 18 h
[15] = tested on: Escherichia coli; assay: Bactericidal activity against Escherichia coli ATCC […] assessed as log reduction in colony forming units per ml at 7.1 uM in LB media after 6 hrs in presence of 50.4 uM novobiocin by time-kill assay; assay type: functional
[16] = tested on: Pseudomonas aeruginosa; assay: Potentiation of novobiocin-induced antibacterial activity against carbapenem-resistant Pseudomonas aeruginosa 264-104354 clinical isolate assessed as fold reduction in novobiocin MIC incubated for 18 hrs by CLSI protocol based assay relative to novobiocin MIC; assay type: functional
[17] = tested on: Enterobacter cloacae; assay: Potentiation of novobiocin-induced antibacterial activity against colistin-resistant Enterobacter cloacae 121187 clinical solate assessed as fold reduction in novobiocin MIC incubated for 18 hrs by CLSI protocol based assay relative to novobiocin MIC; assay type: functional
[18] = tested on: Enterobacter cloacae; assay: Potentiation of novobiocin-induced antibacterial activity against colistin-resistant Enterobacter cloacae 118568 clinical solate assessed as novobiocin MIC at <= 7.1 uM incubated for 18 hrs by CLSI protocol based assay (reference value: 1024 ug/ml); assay type: functional; conditions: Enterobacter cloacae, 118568, 18 h
[19] = tested on: Enterobacter cloacae; assay: Potentiation of novobiocin-induced antibacterial activity against Enterobacter cloacae 117029 clinical solate assessed as novobiocin MIC at <= 7.1 uM incubated for 18 hrs by CLSI protocol based assay (reference value: 1024 ug/ml); assay type: functional; conditions: Enterobacter cloacae, 117029, 18 h
[20] = tested on: Pseudomonas aeruginosa; assay: Synergistic antibacterial activity against wild type Pseudomonas aeruginosa PAO1 assessed as potentiation of piperacillin-induced antibacterial effect incubated for 18 hrs by checkerboard assay relative to piperacillin alone; assay type: functional
[21] = tested on: Pseudomonas aeruginosa; assay: Antibacterial activity against mexAB-oprM/mexCD-oprJ/mexEF-oprN/mexJK/mexXY/opmH mutant deficient Pseudomonas aeruginosa PAO750 incubated for 18 hrs by CLSI protocol based assay; assay type: functional; conditions: PAO750, 18 h
[22] = tested on: Pseudomonas aeruginosa; assay: Synergistic antibacterial activity against wild type Pseudomonas aeruginosa PAO1 assessed as potentiation of fosfomycin-induced antibacterial effect incubated for 18 hrs by checkerboard assay relative to fosfomycin alone; assay type: functional
[23] = tested on: Pseudomonas aeruginosa; assay: Synergistic antibacterial activity against wild type Pseudomonas aeruginosa PAO1 assessed as potentiation of levofloxacin-induced antibacterial effect incubated for 18 hrs by checkerboard assay; assay type: functional, organism-based
[24] = tested on: Pseudomonas aeruginosa; assay: Potentiation of novobiocin-induced antibacterial activity against carbapenem-resistant Pseudomonas aeruginosa 264-104354 clinical isolate assessed as novobiocin MIC at <= 7.1 uM incubated for 18 hrs by CLSI protocol based assay (reference value: 512 ug/ml); assay type: functional; conditions: 264-104354, 18 h
[25] = tested on: Acinetobacter baumannii; assay: Antibacterial activity against colistin-resistant Acinetobacter baumannii 92257 clinical isolate incubated for 18 hrs by CLSI protocol based assay; assay type: functional; conditions: Acinetobacter baumannii, 92257, 18 h
[26] = tested on: Pseudomonas aeruginosa; assay: Potentiation of novobiocin-induced antibacterial activity against carbapenem-resistant Pseudomonas aeruginosa 262-101856 clinical isolate assessed as fold reduction in novobiocin MIC incubated for 18 hrs by CLSI protocol based assay relative to novobiocin MIC; assay type: functional
[27] = tested on: Acinetobacter baumannii; assay: Antibacterial activity against wild type Acinetobacter baumannii ATCC 17978 incubated for 18 hrs by CLSI protocol based assay; assay type: functional; conditions: ATCC 17978, 18 h
[28] = tested on: Pseudomonas aeruginosa; assay: Synergistic antibacterial activity against wild type Pseudomonas aeruginosa PAO1 assessed as potentiation of fosfomycin-induced antibacterial effect incubated for 18 hrs by checkerboard assay; assay type: functional, organism-based
[29] = tested on: Pseudomonas aeruginosa; assay: Synergistic antibacterial activity against wild type Pseudomonas aeruginosa PAO1 assessed as potentiation of novobiocin-induced antibacterial effect incubated for 18 hrs by checkerboard assay relative to novobiocin alone; assay type: functional
[30] = tested on: Escherichia coli; assay: Potentiation of novobiocin-induced antibacterial activity against colistin-resistant Escherichia coli 94393 clinical isolate harboring mcr-1 gene assessed as novobiocin MIC at <= 7.1 uM incubated for 18 hrs by CLSI protocol based assay (reference value: 128 ug/ml); assay type: functional; conditions: Escherichia coli, 94393, 18 h
[31] = tested on: Escherichia coli; assay: Potentiation of novobiocin-induced antibacterial activity against colistin-resistant Escherichia coli 94474 clinical isolate harboring mcr-1 gene assessed as fold reduction in novobiocin MIC incubated for 18 hrs by CLSI protocol based assay relative to novobiocin MIC; assay type: functional
[32] = tested on: Acinetobacter baumannii; assay: Potentiation of novobiocin-induced antibacterial activity against Acinetobacter baumannii 031 clinical isolate assessed as fold reduction in novobiocin MIC incubated for 18 hrs by CLSI protocol based assay relative to novobiocin MIC; assay type: functional

**Q.** What does the source list for `NC[C@H]1O[C@H](O[C@H]2[C@H](OCCCCc3cn(CCCCO[C@@H]4[C@@H](O[C@H]5O[C@H](CO)[C@@H](O)[C@H](N)[C@H]5O)[C@H](N)C[C@H](N)[C@H]4O[C@H]4O[C@H](CN)[C@@H](O)C[C@H]4N)nn3)[C@@H](O[C@H]3O[C@H](CO)[C@@H](O)[C@H](N)[C@H]3O)[C@H](N)C[C@@H]2N)[C@H](N)C[C@@H]1O.O=C(O)C(F)(F)F.O=C(O)C(F)(F)F.O=C(O)C(F)(F)F.O=C(O)C(F)(F)F.O=C(O)C(F)(F)F.O=C(O)C(F)(F)F.O=C(O)C(F)(F)F.O=C(O)C(F)(F)F.O=C(O)C(F)(F)F.O=C(O)C(F)(F)F`?
**A.** Ratio [1]: 32; Activity [2]: Dose-dependent effect; Ratio [3]: 16; MIC [4]: 0.25 µg/mL; Activity [5]: -2 CFU/ml; MIC [6]: 1 µg/mL; Activity [7]: Dose-dependent effect; Activity [8]: Dose-dependent effect; MIC [9]: > 128 µg/mL; Activity [10]: Dose-dependent effect; Activity [11]: Dose-dependent effect; Activity [12]: Dose-dependent effect; Activity [13]: Dose-dependent effect; MIC [14]: 16 µg/mL; Activity [15]: -5 CFU/ml; Ratio [16]: 64; Ratio [17]: 8; MIC [18]: 32 µg/mL; MIC [19]: 8 µg/mL; fold change (FC) [20]: 4 - 128; MIC [21]: > 128 µg/mL; fold change (FC) [22]: 4 - 128; Activity [23]: Dose-dependent effect; MIC [24]: 8 µg/mL; MIC [25]: > 128 µg/mL; Ratio [26]: 64; MIC [27]: > 128 µg/mL; Activity [28]: Dose-dependent effect; fold change (FC) [29]: 4 - 128; MIC [30]: 2 µg/mL; Ratio [31]: 16; Ratio [32]: 16
